Like-named read-outs stand apart in the source and are kept apart here.
Tests used:
kinases (468) [1] = target: kinases (468) (Homo sapiens, UniProt P29322); conditions: EPHA8; 1000 nM
kinases (468) [2] = target: kinases (468) (Homo sapiens, UniProt Q9P289); conditions: MST4; 1000 nM
kinases (468) [3] = target: kinases (468) (Homo sapiens, UniProt P00533); conditions: EGFR; 1000 nM
kinases (468) [4] = target: kinases (468) (Homo sapiens, UniProt P07949, V804M); conditions: kinase RET(V804M) (Entrez RET); compound concentration 1000 nM
kinases (468) [5] = target: kinases (468) (Homo sapiens, UniProt P42684); conditions: ABL2; 1000 nM
kinases (468) [6] = target: kinases (468) (Homo sapiens, UniProt P00533, L861Q); conditions: EGFR(L861Q); 1000 nM
kinases (468) [7] = target: kinases (468) (Homo sapiens, UniProt Q02763); conditions: kinase TIE2 (Entrez TEK); compound concentration 1000 nM
kinases (468) [8] = target: kinases (468) (Homo sapiens, UniProt Q13233); conditions: MAP3K1; 1000 nM
kinases (468) [9] = target: kinases (468) (Homo sapiens, UniProt O14976); conditions: GAK; 1000 nM
kinases (468) [10] = target: kinases (468) (Homo sapiens, UniProt Q16584); conditions: MLK3 (MAP3K11); 1000 nM
kinases (468) [11] = target: kinases (468) (Homo sapiens, UniProt P22607, G697C); conditions: FGFR3(G697C); 1000 nM
kinases (468) [12] = target: kinases (468) (Homo sapiens, UniProt Q02156); conditions: PRKCE; 1000 nM
kinases (468) [13] = target: kinases (468) (Homo sapiens, UniProt P53667); conditions: LIMK1; 1000 nM
kinases (468) [14] = target: kinases (468) (Homo sapiens, UniProt Q5S007); conditions: LRRK2; 1000 nM
kinases (468) [15] = target: kinases (468) (Homo sapiens, UniProt O94806); conditions: PRKD3; 1000 nM
kinases (468) [16] = target: kinases (468) (Homo sapiens, UniProt P53779); conditions: JNK3 (MAPK10); 1000 nM
kinases (468) [17] = target: kinases (468) (Homo sapiens, UniProt Q8IVW4); conditions: CDKL3; 1000 nM
kinases (468) [18] = target: kinases (468) (Homo sapiens, UniProt Q16659); conditions: ERK3 (MAPK6); 1000 nM
kinases (468) [19] = target: kinases (468) (Homo sapiens, UniProt P07947); conditions: kinase YES (Entrez YES1); compound concentration 1000 nM
kinases (468) [20] = target: kinases (468) (Homo sapiens, UniProt Q8TDX7); conditions: NEK7; 1000 nM
kinases (468) [21] = target: kinases (468) (Plasmodium falciparum, UniProt P62344); conditions: PFCDPK1(P.falciparum) (CDPK1); 1000 nM
kinases (468) [22] = target: kinases (468) (Homo sapiens, UniProt O43683); conditions: BUB1; 1000 nM
kinases (468) [23] = target: kinases (468) (Homo sapiens, UniProt P42336, Q546K); conditions: PIK3CA(Q546K); 1000 nM
kinases (468) [24] = target: kinases (468) (Homo sapiens, UniProt O75676); conditions: compound concentration 1000 nM
kinases (468) [25] = target: kinases (468) (Homo sapiens, UniProt Q13976); conditions: PRKG1; 1000 nM
kinases (468) [26] = target: kinases (468) (Homo sapiens, UniProt Q07002); conditions: PCTK3 (CDK18); 1000 nM
kinases (468) [27] = target: kinases (468) (Homo sapiens, UniProt P54764); conditions: EPHA4; 1000 nM
kinases (468) [28] = target: kinases (468) (Homo sapiens, UniProt Q15375); conditions: EPHA7; 1000 nM
kinases (468) [29] = target: kinases (468) (Homo sapiens, UniProt P0C264); conditions: kinase SgK110 (Entrez SgK110); compound concentration 1000 nM
kinases (468) [30] = target: kinases (468) (Homo sapiens, UniProt Q9HC98); conditions: NEK6; 1000 nM
kinases (468) [31] = target: kinases (468) (Homo sapiens, UniProt Q9BZL6); conditions: PRKD2; 1000 nM
kinases (468) [32] = target: kinases (468) (Homo sapiens, UniProt P00519, F317I); conditions: 1000 nM
kinases (468) [33] = target: kinases (468) (Homo sapiens, UniProt P51956); conditions: NEK3; 1000 nM
kinases (468) [34] = target: kinases (468) (Homo sapiens, UniProt P21127); conditions: CDC2L1 (CDK11B); 1000 nM

Chain of kinases (468) (Homo sapiens, UniProt P00519, F317I) (P00519 whole entry F317I): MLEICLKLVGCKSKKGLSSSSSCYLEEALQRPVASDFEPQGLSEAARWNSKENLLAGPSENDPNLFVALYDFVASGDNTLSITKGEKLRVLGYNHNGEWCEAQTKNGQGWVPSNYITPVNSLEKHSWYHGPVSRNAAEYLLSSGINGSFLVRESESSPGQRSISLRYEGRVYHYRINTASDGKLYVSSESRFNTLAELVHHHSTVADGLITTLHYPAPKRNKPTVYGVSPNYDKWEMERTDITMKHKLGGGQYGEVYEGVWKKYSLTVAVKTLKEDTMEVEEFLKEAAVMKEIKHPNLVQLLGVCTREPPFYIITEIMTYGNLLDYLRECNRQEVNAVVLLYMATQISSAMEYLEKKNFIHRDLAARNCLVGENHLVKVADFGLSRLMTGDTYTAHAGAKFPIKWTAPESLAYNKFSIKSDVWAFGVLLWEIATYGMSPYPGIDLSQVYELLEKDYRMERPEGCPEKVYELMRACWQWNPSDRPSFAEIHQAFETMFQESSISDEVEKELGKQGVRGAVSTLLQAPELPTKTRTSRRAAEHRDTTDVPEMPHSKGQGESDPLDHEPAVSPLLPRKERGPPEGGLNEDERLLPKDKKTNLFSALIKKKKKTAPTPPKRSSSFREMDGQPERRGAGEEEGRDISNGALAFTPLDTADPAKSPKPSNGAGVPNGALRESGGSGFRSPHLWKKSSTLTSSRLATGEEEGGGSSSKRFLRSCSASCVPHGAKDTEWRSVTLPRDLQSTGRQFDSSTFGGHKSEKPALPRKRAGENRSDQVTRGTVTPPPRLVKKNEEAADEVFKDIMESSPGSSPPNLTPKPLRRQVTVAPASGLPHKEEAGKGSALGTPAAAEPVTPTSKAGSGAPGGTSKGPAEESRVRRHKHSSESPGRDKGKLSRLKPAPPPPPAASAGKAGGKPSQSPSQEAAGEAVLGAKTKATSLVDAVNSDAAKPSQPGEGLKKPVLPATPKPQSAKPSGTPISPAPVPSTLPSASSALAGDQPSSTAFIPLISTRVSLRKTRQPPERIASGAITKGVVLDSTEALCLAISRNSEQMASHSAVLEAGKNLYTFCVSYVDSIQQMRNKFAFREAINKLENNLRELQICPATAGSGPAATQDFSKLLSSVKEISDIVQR
Chain of kinases (468) (Homo sapiens, UniProt O75676) (O75676 whole entry): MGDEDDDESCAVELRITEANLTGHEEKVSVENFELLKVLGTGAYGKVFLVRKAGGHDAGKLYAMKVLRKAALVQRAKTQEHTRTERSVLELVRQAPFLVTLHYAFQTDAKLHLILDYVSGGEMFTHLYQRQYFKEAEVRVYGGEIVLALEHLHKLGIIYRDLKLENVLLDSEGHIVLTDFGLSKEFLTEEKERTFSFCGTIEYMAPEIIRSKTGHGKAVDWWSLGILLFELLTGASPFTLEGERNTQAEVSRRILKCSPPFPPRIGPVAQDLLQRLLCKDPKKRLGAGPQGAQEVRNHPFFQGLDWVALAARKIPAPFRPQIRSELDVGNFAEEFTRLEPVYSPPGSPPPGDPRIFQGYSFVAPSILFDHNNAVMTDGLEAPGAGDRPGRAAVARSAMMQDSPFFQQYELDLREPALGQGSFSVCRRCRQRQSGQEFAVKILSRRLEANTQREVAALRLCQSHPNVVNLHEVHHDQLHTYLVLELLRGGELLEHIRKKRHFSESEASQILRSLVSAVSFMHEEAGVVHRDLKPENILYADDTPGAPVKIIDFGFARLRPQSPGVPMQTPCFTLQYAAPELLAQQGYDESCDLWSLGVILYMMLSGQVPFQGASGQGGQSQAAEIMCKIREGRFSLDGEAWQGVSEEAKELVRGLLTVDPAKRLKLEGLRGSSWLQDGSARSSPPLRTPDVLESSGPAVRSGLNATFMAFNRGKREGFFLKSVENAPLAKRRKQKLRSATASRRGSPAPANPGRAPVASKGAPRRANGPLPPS
Chain of kinases (468) (Homo sapiens, UniProt Q16659) (Q16659 whole entry): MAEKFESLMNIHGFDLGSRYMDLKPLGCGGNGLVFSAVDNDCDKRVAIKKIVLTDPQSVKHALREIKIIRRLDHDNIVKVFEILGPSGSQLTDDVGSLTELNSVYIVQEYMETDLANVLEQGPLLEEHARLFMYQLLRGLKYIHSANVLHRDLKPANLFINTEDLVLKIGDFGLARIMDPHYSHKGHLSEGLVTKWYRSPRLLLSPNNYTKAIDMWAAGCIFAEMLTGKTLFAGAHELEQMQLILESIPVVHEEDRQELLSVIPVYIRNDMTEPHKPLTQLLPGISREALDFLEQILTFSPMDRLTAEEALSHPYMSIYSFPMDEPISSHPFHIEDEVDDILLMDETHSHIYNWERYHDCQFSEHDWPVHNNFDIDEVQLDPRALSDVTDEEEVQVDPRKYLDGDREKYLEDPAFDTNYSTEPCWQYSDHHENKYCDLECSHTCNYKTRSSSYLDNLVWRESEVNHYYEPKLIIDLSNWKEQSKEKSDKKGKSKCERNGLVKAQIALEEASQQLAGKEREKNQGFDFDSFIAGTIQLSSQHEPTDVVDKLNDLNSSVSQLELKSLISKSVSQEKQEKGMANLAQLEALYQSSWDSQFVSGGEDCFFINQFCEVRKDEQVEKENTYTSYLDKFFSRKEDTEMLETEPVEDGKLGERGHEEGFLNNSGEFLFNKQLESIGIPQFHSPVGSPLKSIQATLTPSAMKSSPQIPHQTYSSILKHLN
Chain of kinases (468) (Homo sapiens, UniProt P51956) (P51956 whole entry): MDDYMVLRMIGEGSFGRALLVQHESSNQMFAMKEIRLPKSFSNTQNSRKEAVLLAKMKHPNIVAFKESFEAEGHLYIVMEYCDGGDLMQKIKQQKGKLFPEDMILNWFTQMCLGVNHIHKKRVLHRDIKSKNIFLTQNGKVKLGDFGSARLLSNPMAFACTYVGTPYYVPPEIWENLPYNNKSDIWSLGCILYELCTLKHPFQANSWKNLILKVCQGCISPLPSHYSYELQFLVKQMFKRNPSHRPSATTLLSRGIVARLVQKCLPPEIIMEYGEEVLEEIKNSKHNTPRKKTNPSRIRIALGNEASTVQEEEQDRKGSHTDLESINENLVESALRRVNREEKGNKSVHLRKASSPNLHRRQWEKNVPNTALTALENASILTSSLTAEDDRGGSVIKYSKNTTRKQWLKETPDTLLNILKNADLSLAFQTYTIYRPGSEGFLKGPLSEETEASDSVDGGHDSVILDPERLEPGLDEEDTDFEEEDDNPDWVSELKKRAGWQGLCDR
Chain of kinases (468) (Homo sapiens, UniProt P00533, L861Q) (P00533 25-1210 L861Q, looked up): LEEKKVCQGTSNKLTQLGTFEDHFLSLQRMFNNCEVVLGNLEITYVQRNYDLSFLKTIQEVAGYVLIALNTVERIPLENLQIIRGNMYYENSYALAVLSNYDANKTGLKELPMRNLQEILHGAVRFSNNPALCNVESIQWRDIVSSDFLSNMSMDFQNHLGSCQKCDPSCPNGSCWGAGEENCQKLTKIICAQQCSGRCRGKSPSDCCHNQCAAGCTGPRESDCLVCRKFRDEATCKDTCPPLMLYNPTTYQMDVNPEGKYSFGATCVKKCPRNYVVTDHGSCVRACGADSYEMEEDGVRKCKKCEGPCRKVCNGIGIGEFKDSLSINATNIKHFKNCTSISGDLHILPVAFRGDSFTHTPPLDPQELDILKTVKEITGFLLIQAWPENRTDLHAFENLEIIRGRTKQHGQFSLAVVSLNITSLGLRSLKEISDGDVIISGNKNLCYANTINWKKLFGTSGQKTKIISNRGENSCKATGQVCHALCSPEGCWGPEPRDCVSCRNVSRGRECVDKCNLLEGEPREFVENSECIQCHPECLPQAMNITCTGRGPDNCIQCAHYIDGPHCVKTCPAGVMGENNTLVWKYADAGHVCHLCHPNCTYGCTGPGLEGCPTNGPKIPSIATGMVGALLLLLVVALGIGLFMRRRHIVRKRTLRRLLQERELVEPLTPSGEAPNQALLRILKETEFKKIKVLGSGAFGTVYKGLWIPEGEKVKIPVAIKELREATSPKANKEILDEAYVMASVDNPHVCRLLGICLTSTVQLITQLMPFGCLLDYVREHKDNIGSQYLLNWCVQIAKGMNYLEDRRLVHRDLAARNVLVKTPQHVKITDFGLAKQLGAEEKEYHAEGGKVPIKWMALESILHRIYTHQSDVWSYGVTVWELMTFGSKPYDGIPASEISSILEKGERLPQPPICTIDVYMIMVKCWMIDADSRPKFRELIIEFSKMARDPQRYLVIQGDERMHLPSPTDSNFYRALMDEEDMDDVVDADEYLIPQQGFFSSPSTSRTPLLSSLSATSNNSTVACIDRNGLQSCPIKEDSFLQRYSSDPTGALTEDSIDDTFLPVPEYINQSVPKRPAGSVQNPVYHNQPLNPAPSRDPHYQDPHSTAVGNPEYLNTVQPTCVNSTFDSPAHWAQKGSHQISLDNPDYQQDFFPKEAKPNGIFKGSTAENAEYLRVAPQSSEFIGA
Chain of kinases (468) (Homo sapiens, UniProt P0C264) (P0C264 whole entry): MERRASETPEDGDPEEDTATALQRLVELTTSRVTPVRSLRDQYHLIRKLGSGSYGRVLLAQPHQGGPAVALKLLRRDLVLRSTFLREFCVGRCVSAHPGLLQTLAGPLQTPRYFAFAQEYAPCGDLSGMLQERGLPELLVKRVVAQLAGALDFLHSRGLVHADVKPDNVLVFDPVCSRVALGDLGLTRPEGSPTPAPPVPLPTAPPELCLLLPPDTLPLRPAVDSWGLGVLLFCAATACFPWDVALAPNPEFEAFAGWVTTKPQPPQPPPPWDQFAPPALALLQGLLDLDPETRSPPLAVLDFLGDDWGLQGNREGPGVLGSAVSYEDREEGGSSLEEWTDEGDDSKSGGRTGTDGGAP
Chain of kinases (468) (Homo sapiens, UniProt Q8TDX7) (Q8TDX7 whole entry): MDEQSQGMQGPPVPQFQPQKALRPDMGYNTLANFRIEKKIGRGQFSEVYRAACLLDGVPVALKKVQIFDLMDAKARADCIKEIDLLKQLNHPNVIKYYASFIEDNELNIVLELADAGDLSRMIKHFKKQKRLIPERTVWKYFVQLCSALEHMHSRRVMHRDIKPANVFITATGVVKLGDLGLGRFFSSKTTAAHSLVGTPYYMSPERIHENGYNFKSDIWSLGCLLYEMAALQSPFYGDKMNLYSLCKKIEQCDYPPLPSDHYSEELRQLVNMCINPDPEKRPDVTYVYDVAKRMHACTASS

In the case of C[C@H]1C[C@@H](O)CN(c2ncc(Cl)c(Nc3ccc4c(c3)c3c(c(=O)n4C)OCC(F)(F)[C@H](C4CC4)N3)n2)C1 [CCT373566_9A], the “Percent Control” value (kinases (468) [1]) is reported as 100%, the “Percent Control” value (kinases (468) [2]) is reported as 100% and the “Percent Control” value (kinases (468) [3]) is reported as 100%. The “Percent Control” value (kinases (468) [4]) was 97%, the “Percent Control” value (kinases (468) [5]) was 100% and the “Percent Control” value (kinases (468) [6]) was 100%. The “Percent Control” value (kinases (468) [7]) was 100%, the “Percent Control” value (kinases (468) [8]) was 93% and the “Percent Control” value (kinases (468) [9]) was 86%. For the same compound, the “Percent Control” value (kinases (468) [10]) was 100%, the “Percent Control” value (kinases (468) [11]) was 99% and the “Percent Control” value (kinases (468) [12]) was 98%. For the same compound, the “Percent Control” value (kinases (468) [13]) was 57%, the “Percent Control” value (kinases (468) [14]) was 98% and the “Percent Control” value (kinases (468) [15]) was 75%. For the same compound, the “Percent Control” value (kinases (468) [16]) was 87%, the “Percent Control” value (kinases (468) [17]) was 100% and the “Percent Control” value (kinases (468) [18]) was 100%. The “Percent Control” value (kinases (468) [19]) was 99%, the “Percent Control” value (kinases (468) [20]) was 96% and the “Percent Control” value (kinases (468) [21]) was 69%. For the same compound, the “Percent Control” value (kinases (468) [22]) was 94%, the “Percent Control” value (kinases (468) [23]) was 89% and the “Percent Control” value (kinases (468) [24]; kinase RPS6KA4(Kin.Dom.1-N-terminal) (Entrez RPS6KA4)) was 96%. The “Percent Control” value (kinases (468) [24]; kinase RPS6KA4(Kin.Dom.2-C-terminal) (Entrez RPS6KA4)) was 100%, the “Percent Control” value (kinases (468) [25]) was 96% and the “Percent Control” value (kinases (468) [26]) was 99%. The “Percent Control” value (kinases (468) [27]) was 100%, the “Percent Control” value (kinases (468) [28]) was 100% and the “Percent Control” value (kinases (468) [29]) was 95%. The “Percent Control” value (kinases (468) [30]) was 100%, the “Percent Control” value (kinases (468) [31]) was 94% and the “Percent Control” value (kinases (468) [32]; ABL1(F317I)-nonphosphorylated) was 95%. The “Percent Control” value (kinases (468) [32]; ABL1(F317I)-phosphorylated) was 90%, the “Percent Control” value (kinases (468) [33]) was 98% and the “Percent Control” value (kinases (468) [34]) was 100%.

— article PMC9234961 (Journal of Medicinal Chemistry, 2022)
